Data published in patent publication US20240034991A1, “METHOD FOR EFFICIENTLY INDUCING REPROGRAMMING OF HUMAN CELL INTO NEURONAL CELL” (GUANGXI UNIVERSITY, priority 2022, published 2024).

Test system: Human skin fibroblasts (BJ)
Test: Immunofluorescence detection of neuronal cell marker antigens in induced human skin fibroblasts (CiNCs)
Type: cell-based
Procedure: After 48 h of induction, the induction medium was replaced with a neuronal cell maturation medium to continue promoting further maturation of the CiNCs, and the neuronal cell maturation medium was replaced with a neuronal cell medium after 72 h for long-term culture.
Immunofluorescence detection of neuronal cell marker antigens was conducted on human skin fibroblasts and cells induced by neuronal cell induction (N2B27+10 μM Forskolin) for 48 h. The method included the following specific steps: human skin fibroblasts and F-48h cells in a culture plate were fixated with 4% paraformaldehyde (PFA) at room temperature for 30 min; the cells were washed with a blocking solution three times, 5 min in each time; the cells were permeabilized by 1% TritonX-100 for 15 min at room temperature; the cells were washed with the blocking solution three times again; non-specific sites were blocked with 5% donkey serum, and then blocked for 2 h at room temperature; the cells were washed three times with TBP (Tritonx-Bovine albumin-Phosphate Buffer Saline) for 5 min in each time; a primary antibody was added for incubation at 4° C. overnight; on a next day, the culture plate was placed at room temperature, rewarmed for 20 min, and then washed with TBP three times for 5 min in each time, a secondary antibody and a Hoechst mixture were added in the dark, and incubated at room temperature for 1 h; after washing three times with a TBP solution, fluorescence microscope observation and photographing experiment were conducted.

| SMILES | Expression of neuronal cell marker antigens TUJ1, MAP2 and NeuN (immunofluorescence, FIG. 5) (N2B27+KSR+5 μM compound) | other results |
| --- | --- | --- |
| c1ccc2c(-c3cnn4cc(-c5ccc(N6CCNCC6)cc5)cnc34)ccnc2c1 [LDN193189] | expressed neuronal cell marker antigens TUJ1, MAP2 and NeuN | – |
| C=C[C@@]1(C)CC(=O)[C@]2(O)[C@@]3(C)[C@@H](O)CCC(C)(C)[C@@H]3[C@H](O)[C@H](OC(C)=O)[C@@]2(C)O1 [Forskolin] | – | TUJ1 positive rate of CiNCs (N2B27+KSR+10 μM Forskolin, 48 h after induction): 80% |
| C[S+]([O-])c1ccc(-c2nc(-c3ccncc3)c(-c3ccc(F)cc3)[nH]2)cc1 (stereo not shown) [SB203580] | expressed neuronal cell marker antigens TUJ1, MAP2 and NeuN | – |
| Nc1ncnc2c1ncn2[C@@H]1O[C@@H]2COP(=O)(O)O[C@H]2[C@H]1O [cAMP, cyclic Adenosine Monophosphate] | – | Expression of neuronal cell marker antigens TUJ1, MAP2 and NeuN (immunofluorescence, FIG. 5) (N2B27+KSR+10 μM compound): expressed neuronal cell marker antigens TUJ1, MAP2 and NeuN |
